# Assay results: PMC7801313, “Effect of lurbinectedin on the QTc interval in patients with advanced solid tumors: an exposure–response analysis” (Cancer Chemotherapy and Pharmacology, 2020)
# Values joined by “and” are separate entries in the source; they are usually repeats but may differ in a detail not shown here. Equal values may be shown once.
# What was measured:
# patients [1] = test system: patients; design: method as in PMID 24563480; conditions: cited from earlier work
# telemetered dogs = test system: telemetered dogs; design: method as in data on file; conditions: single i.v. bolus at maximum tolerated dose, ref data on file; cited from earlier work
# patients [2] = assay: clinical toxicity of lurbinectedin as a single agent; type: in vivo, human; conditions: to date
# [3] = test system: patients with advanced solid tumors; assay: cardiac adverse events in the QT evaluation study; type: in vivo, human
# Experimental: Cardiac adverse events (AEs) observed in the period of this QT evaluation study were evaluated and graded according to the National Cancer Institute Common Terminology Criteria for Adverse Events (NCI-CTCAE), v.4 and coded using the Medical Dictionary for Regulatory Activities (MedDRA) v.16.0. Laboratory results of particular relevance (i.e., changes in albumin, calcium, potassium, or magnesium) were graded according to the NCI-CTCAE v.4.
# [4] = design: method as in data on file; conditions: ref data on file; cited from earlier work
# cytochrome P450 (CYP) 3A = test system: cytochrome P450 (CYP) 3A; design: method as in data on file; conditions: in vitro studies; ref data on file; cited from earlier work
# [5] = test system: patients with advanced solid tumors; assay: QT evaluation study, by time point ECG analysis; type: in vivo, human
# Experimental: This was a QT evaluation study (EudraCT No. 2015-000206-18; ClinicalTrials.gov: NCT02451007) performed at a subset of sites participating in a multicenter, open-label, exploratory, phase II basket clinical trial (EudraCT No: 2014-003773-42; ClinicaTrials.gov: NCT02454972) conducted in patients with selected advanced solid tumors. The schedule used in this QT evaluation study was that evaluated in the basket trial: lurbinectedin 3.2 mg/m^2 given as a 1-h i.v. infusion q3wk.
# A screening ECG was collected between day -10 and day -2 before the first lurbinectedin infusion (day 1 of cycle 1) and transmitted to the central ECG laboratory to confirm the patient’s eligibility.
# On day 1 of cycle 1, two baseline triplicate ECGs (three 10-s digital ECGs in close succession) were collected: one before administration of prophylactic medication or pre-dose 1, and the other after antiemetic prophylactic medication (palonosetron 0.25 mg i.v.) and before the start of the lurbinectedin infusion or pre-dose 2 (also on cycle 2).
# In cycle 1 and cycle 2, the following triplicate ECGs were collected 5–10 min before their time-matched PK time points: 5 min before end of the lurbinectedin infusion (EOI), 30 min, 1, 3, 24, 72 (only on cycle 1), and 168 h after EOI.
# A 12-lead automated digital ECG recorder [Mortara Instrument (Milwaukee, WI, USA) ELI-150 ECG 12-lead digital recorder] was provided by a third-party central ECG laboratory (eResearchTechnology, Inc., Philadelphia, PA, USA). Analysis and reporting of ECG data were performed by a limited number of skilled readers who were blinded to treatment time point. ECG review of a particular patient was performed by a single reader. Interval duration measurements were collected using computer-assisted caliper placements on three consecutive beats. A cardiologist then verified the interval durations and performed the morphology analysis, noting any T-U wave complex compatible with an effect on cardiac repolarization. The ECG analysis was conducted in Lead II or in Lead V5 if Lead II was not analyzable. If Lead V5 was not analyzable, then Lead V2 was used, and followed by the most appropriate lead if necessary. The mean of triplicate ECG measures at each time point for each patient was used for analyses.
# Fridericia’s formula [6] is currently considered the most accurate method for correcting the effect of HR on QT interval [7], and was used as the main method for HR correction for QT (QTcF). Nevertheless, graphical inspection of QTcF and QT corrected by Bazett’s formula (QTcB) versus RR interval plots and statistical comparison of resulting squared linear regression slopes (R^2) was performed.
# The primary endpoint was the change in QTc corrected by the Fridericia’s formula (ΔQTcF) between each scheduled post-baseline ECG time point and baseline at cycle 1. A patient was considered evaluable for the primary endpoint if he/she had baseline and one or more post-baseline ECG assessments.
# Secondary endpoints were the ΔQTcF/lurbinectedin plasma concentration relationship, and change in other ECG parameters (i.e., HR, QRS, and PR).
# The primary comparison was ΔQTcF at each ECG time point. A non-inferiority criterion of 20 ms was used to establish the absence of post-baseline QTc prolongation when compared to baseline. An analysis of variance model with mixed effects was fitted, with ΔQTc data as the dependent variable and ECG time point as the fixed effects, and patient as random effect.
# Using the estimated least square means (LSM) and intra-patient standard deviation (Std) obtained from this model, a two-sided 90% confidence interval (CI) was calculated for each LSM ΔQTc. Non-inferiority was to be concluded if the upper bound (UB) of the one-sided 95% CI fell below 20 ms at each ECG time point.
# oncogenic transcription = test system: oncogenic transcription; design: method as in PMID 20977459; conditions: cited from earlier work
# cynomolgus monkeys = test system: cynomolgus monkeys; design: method as in data on file; conditions: single i.v. bolus at maximum tolerated dose, ref data on file; cited from earlier work
# [6] = Cycle 1 Day 1, 30 min after end of infusion
# [7] = Cycle 1 Day 1, 1 h after end of infusion
# [8] = Cycle 1 Day 1, 3 h after end of infusion
# [9] = Cycle 1 Day 2, 24 h after end of infusion
# [10] = Cycle 1 Day 4, 72 h after end of infusion
# [11] = Cycle 1 Day 8, 168 h after end of infusion
# [12] = Cycle 2 Day 1, 5 min before end of infusion
# [13] = Cycle 2 Day 1, 5 min before start of infusion
# [14] = Cycle 2 Day 1, 30 min after end of infusion
# [15] = Cycle 2 Day 1, 1 h after end of infusion
# [16] = Cycle 2 Day 8, 168 h after end of infusion
# [17] = all time points other than 3 h after end of cycle 2 infusion
structure (smiles),measurement,setting,value
"COc1ccc2[nH]c3c(c2c1)CCN[C@]31CS[C@@H]2c3c(OC(C)=O)c(C)c4c(c3[C@H](COC1=O)N1[C@@H]2[C@H]2c3c(cc(C)c(OC)c3O)C[C@@H]([C@@H]1O)N2C)OCO4 [lurbinectedin, Lurbinectedin]",most common limiting toxicity,patients [1],"myelosuppression, particularly neutropenia"
same,cardiovascular changes,telemetered dogs,mild decreases in blood pressure and increased heart rate
same,"effects on lead II ECG variables (PR, QT, QTcF, QTcV, QRS), ECG gross morphology, cardiac rhythm",telemetered dogs,No effects were observed
same,cardiac toxicity concerns,patients [2],no cardiac toxicity concerns
same,cardiac safety findings,[3]; QT evaluation study period,No relevant cardiac safety findings
same,adverse events suggestive of proarrhythmic potential,[3]; in vivo,No adverse events suggestive of proarrythmic potential
same,protein binding,[4],highly protein-bound
same,role of metabolism by CYP3A in clearance,cytochrome P450 (CYP) 3A,major clearance mechanism
same,effect on cardiac repolarization,[5]; 3.2 mg/m^2 1-h i.v. q3wk,not associated with a clinically relevant effect on cardiac repolarization
same,values above reference limits QTcF > 480 ms and ΔQTcF > 60 ms,[5]; 39 evaluable patients,No single value was above the reference limit values of concern
same,"ΔQTcF, mean (Stdv)","[5]; Cycle 1, 0.92 h after start of infusion",3.33 (8.46) ms
same,"ΔQTcF, mean (Stdv)","[5]; Cycle 1, 1.5 h after start of infusion",1.76 (8.25) ms
same,"ΔQTcF, mean (Stdv)","[5]; Cycle 1, 2 h after start of infusion",1.84 (10.88) ms
same,highest mean change from baseline in HR (± Std),"[5]; Cycle 1, 3 h after end of infusion",16.7 (± 11.0) bpm and 16.7 bpm
same,"ΔQTcF, mean (Stdv)","[5]; Cycle 1, 4 h after start of infusion",1.33 (10.39) ms
same,ΔQTcF UB90%CI,"[5]; Cycle 1 Day 1, 5 min before end of infusion",5.51 ms
same,ΔQTcF LSmean,"[5]; Cycle 1 Day 1, 5 min before end of infusion, 3.2 mg/m^2 1-h i.v.",3.32 ms
same,ΔQTcF LSmean,[5]; [6],1.76 ms
same,ΔQTcF UB90%CI,[5]; [6],3.93 ms
same,ΔQTcF LSmean,[5]; [7],1.84 ms
same,ΔQTcF UB90%CI,[5]; [7],4.69 ms
same,ΔQTcF LSmean,[5]; [8],1.32 ms
same,ΔQTcF UB90%CI,[5]; [8],4.05 ms
same,ΔQTcF LSmean,[5]; [9],-8.24 ms
same,ΔQTcF UB90%CI,[5]; [9],-5.26 ms
same,ΔQTcF LSmean,[5]; [10],-12.38 ms
same,ΔQTcF UB90%CI,[5]; [10],-9.39 ms
same,ΔQTcF LSmean,[5]; [11],-5.2 ms
same,ΔQTcF UB90%CI,[5]; [11],-2.41 ms
same,"ΔQTcF, mean (Stdv)","[5]; Cycle 2, 0.92 h after start of infusion",1.54 ms and 1.54 (12.36) ms
same,"ΔQTcF, mean (Stdv)","[5]; Cycle 2, 1.5 h after start of infusion",1.99 (12.06) ms
same,"ΔQTcF, mean (Stdv)","[5]; Cycle 2, 2 h after start of infusion",1.92 (13.65) ms
same,"ΔQTcF, mean (Stdv)","[5]; Cycle 2, 4 h after start of infusion (largest mean)",4.69 ms and 4.69 (15.28) ms
same,ΔQTcF LSmean,[5]; [12],2.25 ms
same,ΔQTcF UB90%CI,[5]; [12],5.68 ms
same,ΔQTcF LSmean,[5]; [13],-0.46 ms
same,ΔQTcF UB90%CI,[5]; [13],2.35 ms
same,ΔQTcF LSmean,[5]; [14],2.32 ms
same,ΔQTcF UB90%CI,[5]; [14],5.66 ms
same,ΔQTcF LSmean,[5]; [15],2.73 ms
same,ΔQTcF UB90%CI,[5]; [15],6.54 ms
same,ΔQTcF UB90%CI,"[5]; Cycle 2 Day 1, 3 h after end of infusion (largest UB)",9.6 ms and 9.60 ms
same,ΔQTcF LSmean,"[5]; Cycle 2 Day 1, 3 h after end of infusion (maximum)",5.39 ms
same,ΔQTcF LSmean,[5]; [16],-4.22 ms
same,ΔQTcF UB90%CI,[5]; [16],-1.08 ms
same,variation between lowest and largest mean change from baseline of PR interval,[5]; all time points and cycles,7.8 ms
same,variation between lowest and largest mean change from baseline of QRS duration,[5]; all time points and cycles,2.5 ms
same,LSM ΔQTcF at other time points,[5]; [17],≤ 3.3 ms
same,UB of the 90% CI of ΔQTcF at other time points,[5]; [17],< 6.6 ms
same,Umax (time when the largest mean ΔQTcF is reached),[5]; cycle 1,0.92 h
same,patients with ΔHR > 25%,[5]; cycle 1,44%
same,difference between Umax and Tmax,[5]; cycle 2,3.08 h
same,patients with ΔHR > 25%,[5]; cycle 2,49%
same,highest mean change from baseline in HR (± Std),"[5]; cycle 2, 3 h after end of infusion",17.5 (± 11.7) bpm and 17.5 bpm
same,effects on atrioventricular conduction or depolarization (mean changes in PR and QRS intervals),[5]; in vivo,No significant effects
same,in vitro activity,oncogenic transcription,low nanomolar range
same,cardiovascular changes,cynomolgus monkeys,mild decreases in blood pressure and increased heart rate
same,"effects on lead II ECG variables (PR, QT, QTcF, QTcV, QRS), ECG gross morphology, cardiac rhythm",cynomolgus monkeys,No effects were observed
